The test system of experiment [1] is secretion of gastric acid. Put plainly: Inhibitory action against secretion of gastric acid (pylorus-ligated rats, Shay method). As to conditions: read-out: Suppressive action against secretion of gastric acid. The experiment is classed as in vivo, male Donryu rats. The procedure:
Under ether anesthesia, the pylorus of the rat was ligated and each test compound was administered intraduodenally. Four hours later, each rat was killed and the stomach was removed to collect the gastric juice. The inhibitory action was determined by comparing the acid output which was obtained by titration to pH 7.0 with 0.1-N NaOH by means of an automatic titrator, with the corresponding value of a control rat prepared in the same manner except that a vehicle alone was administered.

The nature of experiment [2]: Water-immersion stress-induced erosions (gastric lesion model). The experiment is classed as in vivo, male Donryu rats. The note with it: rat, 10 minutes before stressing, 7 hours immersion. The procedure:
Two different types of gastric lesion models were induced in male Donryu rats (180 to 240 g) which had been deprived of food but allowed free acess to water for 24 to 48 hours prior to experiments. Rats fasted for 24 hours before experiments were placed in a restraint cage. The animals were immersed vertically to the level of the xiphoid process in a water bath (21° C.) for 7 hours and then killed. The stomach of each rat was removed and inflated by injecting 10 ml of 1% formalin to fix the inner and outer layers of the gastric walls. This formalin treatment was performed in all of the following experiments. Subsequently, the stomach was incised along a greater curvature and examined for any erosion in the glandular portion. Each test compound or a vehicle alone was given orally 10 minutes before stressing.

In another experiment the target is T1, H^+ +K^+ ATPase (Oryctolagus cuniculus, UniProt P27112).
T1 construct: gastric acid secretory cells of a rabbit gastric mucosa were isolated and vesicle containing H^+ +K^+ ATPase was prepared; from tissue; host or cells: rabbit gastric mucosa, acid secretory cells; vesicles by Ficoll discontinuous density gradient
T1 sequence (P27112 whole entry): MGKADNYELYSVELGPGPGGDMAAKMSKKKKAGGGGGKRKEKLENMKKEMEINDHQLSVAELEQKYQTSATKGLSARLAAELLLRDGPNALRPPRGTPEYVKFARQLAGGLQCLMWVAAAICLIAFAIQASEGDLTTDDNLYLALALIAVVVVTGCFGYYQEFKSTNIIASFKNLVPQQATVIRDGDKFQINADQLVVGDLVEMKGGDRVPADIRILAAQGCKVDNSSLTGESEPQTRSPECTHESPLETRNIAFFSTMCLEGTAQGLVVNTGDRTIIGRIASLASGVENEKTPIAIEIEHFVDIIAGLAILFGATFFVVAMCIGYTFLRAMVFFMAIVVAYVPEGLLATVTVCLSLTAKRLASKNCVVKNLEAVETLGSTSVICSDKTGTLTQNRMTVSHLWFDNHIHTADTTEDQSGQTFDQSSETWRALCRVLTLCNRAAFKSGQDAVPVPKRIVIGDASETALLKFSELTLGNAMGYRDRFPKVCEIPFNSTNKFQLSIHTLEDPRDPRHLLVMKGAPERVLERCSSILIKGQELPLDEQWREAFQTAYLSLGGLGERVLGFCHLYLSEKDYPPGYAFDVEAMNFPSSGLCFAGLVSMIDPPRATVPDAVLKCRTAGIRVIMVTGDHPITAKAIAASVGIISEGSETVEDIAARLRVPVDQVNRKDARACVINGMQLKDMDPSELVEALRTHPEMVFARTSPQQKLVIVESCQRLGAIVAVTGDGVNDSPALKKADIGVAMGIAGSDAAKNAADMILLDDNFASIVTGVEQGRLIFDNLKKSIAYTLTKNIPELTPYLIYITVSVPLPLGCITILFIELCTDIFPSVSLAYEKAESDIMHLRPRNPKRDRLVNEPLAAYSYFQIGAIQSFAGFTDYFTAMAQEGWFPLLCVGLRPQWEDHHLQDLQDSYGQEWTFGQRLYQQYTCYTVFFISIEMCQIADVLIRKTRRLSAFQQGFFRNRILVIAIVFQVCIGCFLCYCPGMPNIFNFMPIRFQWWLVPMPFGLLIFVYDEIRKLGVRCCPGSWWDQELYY
T1 sequence (P18597 whole entry partner): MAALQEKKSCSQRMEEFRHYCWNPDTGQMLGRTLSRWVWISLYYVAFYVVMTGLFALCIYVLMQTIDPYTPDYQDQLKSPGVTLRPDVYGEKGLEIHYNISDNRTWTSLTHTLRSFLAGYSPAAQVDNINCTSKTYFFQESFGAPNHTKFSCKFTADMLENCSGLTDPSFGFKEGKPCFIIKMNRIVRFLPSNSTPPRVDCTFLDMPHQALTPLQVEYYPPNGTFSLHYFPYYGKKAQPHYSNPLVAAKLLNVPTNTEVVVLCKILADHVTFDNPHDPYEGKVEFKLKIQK
Put plainly: H+ + K+ ATPase inhibitory effect (vesicles from rabbit gastric mucosa cells). The experiment is classed as biochemical. The note with it: 2×10^-4 M test compound, 25 min room temperature preincubation at pH 6.0; reaction pH 7.4, 37° C., 15 min. The protocol: Following the method of Forte et al [J. Applied Physiol., 32, 714-717 (1972)], gastric acid secretory cells of a rabbit gastric mucosa were isolated and vesicle containing H^+ +K^+ ATPase was prepared by centrifuging the cells in Ficoll of discontinuous density gradient. After the enzyme was incubated at room temperature for 25 min. in 0.5 ml of a solution which contained 5 mM of an imidazole buffer (pH 6.0) and 2×10^-4 M of each test compound, the mixture was heated to 37° C. at which it was allowed to stand for further 5 min. To the mixture was added 0.5 ml of a solution which contained 4 mM of magnesium chloride, 80 mM of an imidazole buffer (pH 7.4), 20 mM of potassium chloride and 4 mM of ATP. The resulting mixture was caused to react at 37° C. for 15 min., and 1 ml of a 24% solution of trichloroacetic acid was then added to terminate the reaction. The inorganic phosphorus liberated was quantitatively analyzed by the method proposed by Taussky and Shorr [J. Biol. Chem., 202, 675- 685 (1953)]. The K^+ -dependent activity of the ATPase was determined by subtracting its activity obtained when no potassium chloride was contained. The results are set forth in Table 1 in which Compound Nos. 1-7 are the sulfoxide derivatives prepared in the hereinafter-described Examples 1-7, respectively.

The nature of experiment [3]: HCl-ethanol-induced erosions (gastric lesion model). The class given is in vivo, male Donryu rats. The note with it: rat, 30 minutes before ethanol treatment. The protocol:
Two different types of gastric lesion models were induced in male Donryu rats (180 to 240 g) which had been deprived of food but allowed free acess to water for 24 to 48 hours prior to experiments.
A hydrochloric acid-ethanol solution (150 mM HCl in 60% ethanol) was given orally to rats in a dose of 1 ml/200 g, which rats had been fasted for 24 hours before experiments. One hour later, each animal was killed and the stomach was examined for any erosion in the glandular portion. Each test compound or a vehicle alone was given orally 30 minutes before ethanol treatment.

Where [4] appears, read: Rattus norvegicus, intraduodenal, 4 h.
The mark [5] stands for this setting: 100 mg/kg intraduodenal, rat, 4 hours.

The structures appear in SMILES notation. Read-outs that look alike come from different tables or passages of the source.

In the case of `CNC(=NCCSCc1nc[nH]c1C)NC#N` [Cimetidine, N-cyano-N'-methyl-N"-[2-[[(5-methyl-1H-imidazol-4-yl)methyl]thio]-ethyl]guanidine, reference compound], in experiment [1] (setting [4]), the inhibition in vivo at 10 mg/kg is 25.3%, the inhibition in vivo at 30 mg/kg came out at 59.1% and the inhibition in vivo at 100 mg/kg is 80.3%. In addition, in experiment [2] (60 mg/kg oral), the “Inhibition on Water-Immersion stress-induced erosions” value amounted to 49%. The “Inhibition on Water-Immersion stress-induced erosions” value in experiment [2] (200 mg/kg oral) is listed as 87%.

Turning to `CN(C)c1ccccc1C[S+]([O-])c1nc2ncccc2[nH]1` (stereo not shown) [Compound No. 1, 2-(2-dimethylaminobenzylsulfinyl)imidazo[4,5-b]pyridine], the inhibition in vivo at 10 mg/kg in experiment [1] (10 mg/kg intraduodenal, rat, 4 hours) came to 53%. For the same compound, the inhibition in vivo at 30 mg/kg in experiment [1] (30 mg/kg intraduodenal, rat, 4 hours) came out at 79%. Moreover, the inhibition in vivo at 100 mg/kg in experiment [1] (setting [5]) is 95.1%. For the same compound, the figures for the “Inhibition on Water-Immersion stress-induced erosions” value in experiment [2] (30 mg/kg oral) and in experiment [2] (100 mg/kg oral) were 66% and 87%, respectively. Also, the inhibition at 200 µM at H^+ +K^+ ATPase stood at 92.3%. The figures for the “Inhibition on HCl--Ethanol-induced Erosions” value in experiment [3] (10 mg/kg oral) and in experiment [3] (30 mg/kg oral) were 37% and 97%, respectively.

As for `[O-][S+](Cc1ccccn1)c1cnc2ccccc2n1` (stereo not shown) [Compound No. 2, 2-(2-pyridylmethylsulfinyl)quinoxaline], the inhibition in vivo at 100 mg/kg in experiment [1] (setting [5]) was found to be 54.8%. The inhibition at 200 µM on H^+ +K^+ ATPase was found to be 96.8%.

With `Cc1nc2ccccc2nc1[S+]([O-])Cc1ccccn1` (stereo not shown) [Compound No. 3, 3-methyl-2-(2-pyridylmethylsulfinyl)quinoxaline], the inhibition in vivo at 100 mg/kg in experiment [1] (setting [5]) came to 54.7%. Further, the inhibition at 200 µM on H^+ +K^+ ATPase is 99.5%.

With `Cc1nc2cccnc2nc1[S+]([O-])Cc1ccccn1` (stereo not shown) [Compound No. 4, 2-methyl-3-(2-pyridylmethylsulfinyl)pyrido[2,3-b]pyrazine], the inhibition in vivo at 100 mg/kg in experiment [1] (setting [5]) was found to be 96.7%. Further, at H^+ +K^+ ATPase, the inhibition at 200 µM was 89.4%.

In the case of `CN(C)c1ccccc1C[S+]([O-])c1cnc2ccccc2n1` (stereo not shown) [Compound No. 5, 2-(2-dimethylaminobenzylsulfinyl)quinoxaline], the inhibition in vivo at 100 mg/kg in experiment [1] (setting [5]) is 55.1%. Further, the inhibition at 200 µM on H^+ +K^+ ATPase stood at 100%.

`Cc1nc2ccccc2nc1[S+]([O-])Cc1ccccc1N(C)C` (stereo not shown) [Compound No. 6, 2-(2-dimethylaminobenzylsulfinyl)-3-methylquinoxaline]: the inhibition in vivo at 100 mg/kg in experiment [1] (setting [5]) was determined as 89.6%. The inhibition at 200 µM on H^+ +K^+ ATPase amounted to 100%.

Regarding `Cc1cc2nc(C)c([S+]([O-])Cc3ccccc3N(C)C)nc2cc1C` (stereo not shown) [Compound No. 7, 2-(2-dimethylaminobenzylsulfinyl)-3,6,7-trimethylquinoxaline], the inhibition in vivo at 100 mg/kg in experiment [1] (setting [5]) was 46.9%. The inhibition at 200 µM at H^+ +K^+ ATPase came to 80.8%.
